How the values were obtained:
CRP [1] = molecular target: T1, CRP (Homo sapiens, UniProt P02741); test: In vivo clearance of CRP/ligand complexes generated in vivo in mice; design: The final concentrations were 0.73 μM native pentameric CRP; from tissue; conditions: i.v. bolus 18 h after s.c. CRP (1 mg)
T1 sequence (P02741 19-224): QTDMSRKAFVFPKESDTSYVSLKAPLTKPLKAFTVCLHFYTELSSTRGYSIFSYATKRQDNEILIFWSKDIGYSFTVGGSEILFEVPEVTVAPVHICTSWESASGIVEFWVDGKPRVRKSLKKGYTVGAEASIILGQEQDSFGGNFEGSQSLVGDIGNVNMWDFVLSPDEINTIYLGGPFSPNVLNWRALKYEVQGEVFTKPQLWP
Description: (i) Two groups of 8 wild-type C57BL/6 mice (male; 23-27 weeks old) were used: group 1 (control) and group 2 (treated).
(ii) Both groups of animals were given 200 μl of human CRP (5 mg/ml in azide-free TC buffer) subcutaneously on day 1.
(iii) On day 2 (+18 h), control animals were given a 200 μl intravenous bolus of TC buffer. Treated animals were given a 200 μl iv bolus of ligand (prepared at 5 mg/ml in TC buffer).
(iv) One timed blood sample and a terminal blood sample were collected from each mouse into heparinised tubes and weighed. This generated data in quadruplicate at 4 time points, normally 30, 60, 120 and 360 minutes.
(v) ^125I radiolabel was measured (Perkin Elmer Wizard; protocol #1) in whole blood to quantify total CRP. In some cases, electroimmunoassay as above was also used to determine total CRP concentration.
(vi) Plasma was prepared and free CRP determined by Roche immunoassay.
Subcutaneous injection of human CRP provided circulating CRP concentrations with which to test for effects of our ligands in vivo. (Table 4).

CRP [2] = molecular target: T1, CRP; test: Size exclusion chromatography of CRP/ligand cross linking; type: binding; design: The final concentrations were 0.73 μM native pentameric CRP; from tissue
CRP [3] = molecular target: T1, CRP; test: In vivo clearance of preformed CRP/ligand complexes in mice; design: from tissue; conditions: complexes formed in vitro, injected intravenously
Description: (i) CRP at 1 mg/ml in azide-free TC buffer (containing, in some experiments, ˜10^6 cpm/ml of ^125I-CRP) was incubated with a 5-fold molar excess of ligand. A control (ligand-free) sample was also prepared. Cross linking of CRP was confirmed by SEC in TC buffer of a small sample of complex.
(ii) Two groups of eight wild-type C57BL/6 mice (male; 23-27 weeks old) were used.
The complex or control (200 μl, 200 μg CRP) was injected into the tail vein of each mouse. A single timed collection of blood was taken from the tail vain of each mouse; a second terminal sample was also collected. This yielded 4 samples each at 30, 60, 120 and 180 min for control and treated groups.
(iii) Blood samples were weighed and CRP measured in the Roche assay and, in some cases by electroimmunoassay (4, 13). ^125I-CRP was measured by gamma counting (Perkin Elmer Wizard; protocol #1).
Complexes were prepared in vitro using ^125I-labelled CRP and an excess of ligand, and the mixture was then injected intravenously into mice. Clearance of CRP was monitored by counting of the ^125I-CRP tracer and stable CRP-ligand complexes were detected by lack of CRP detection in the Roche assay of the plasma samples. The formation of CRP/ligand complexes was confirmed by size exclusion chromatography before use in each in vivo experiment.

[4] = In vivo clearance of ligand; conditions: male, C57BL/6, mouse, plasma, 0.5 mg; mice, intravenous; read-out: plasma t1/2 of ligand
Description: (i) Ligand (0.5 mg/animal) dissolved in PBS or saline (200 μl) was injected intravenously into the tail vein of six male; 23-27 week old wild-type C57BL/6 mice. Up to two blood samples plus a terminal sample per mouse were collected at each time point up to 180 minutes.
(ii) Serum was prepared and ˜200 ng of internal standard (either ^2H4-BPC6 or BPC9) added. Serum proteins were precipitated with 4 volumes of either ice cold methanol or acetonitrile. The supernatant was dried under vacuum and re-dissolved in 0.1% v/v aqueous formic acid. (iii) Samples were chromatographed on a Phenomenex Aqua column using a gradient of 0.1% v/v formic acid-60% v/v acetonitrile in formic acid, and the eluate passed into the positive ion source of a Quattro II triple quadrupole mass spectrometer. The MRM transitions used were m/z 449.3→390.2 and 453.→394.2 (BPC6) and m/z 477.3→418.3, […] (BPC8).
(iv) Ligand concentrations were measured against an extracted standard curve and were plotted using Sigmaplot (v14) and fitted to a 2-parameter exponential decay.

In the case of `O=P(O)(OCCCCCCCCOP(=O)(O)O[C@@H]1CN2CCC1CC2)O[C@@H]1CN2CCC1CC2` [Pk-023, [(3S)-1-azabicyclo[2.2.2]octan-3-yloxy]({[8-({[(3S)-1-azabicyclo[2.2.2]octan-3-yloxy](hydroxy)phosphoryl}oxy)octyl]oxy})phosphinic acid], the “Effect on detection of circulating CRP in the Roche assay” value (CRP [1]) is reported as “the same as BPC8”, the Stable to rechromatography (CRP [2]; CRP/ligand complex re-chromatographed in absence of free ligand) is reported as “remained intact and Yes” and the “CRP elution volume from Superdex 200 after pre-incubation with ligand” value (CRP [2]; native CRP pentamer elutes at 13.9 ml) is reported as 12.6 mL. For the same compound, the “Time Roche CRP value suppressed (persistence of preformed complex in circulation)” value (CRP [3]) was “suppressed at 15 min but was had returned to control value at 60 min” and the half-life [4] was roughly 15 min.

— patent US20230118142A1, “AGENTS FOR USE IN THE TREATMENT OF TISSUE DAMAGE” (UCL BUSINESS LTD, priority 2020, published 2023)
